≈ marks a conversion by molar mass, not a printed value. Calls of active or inactive are those of the source. The rule behind the calls is not given here. Where a SMILES comes first, the peptide text is derived from it. [ ]: non-standard residue; d: D form. The star is where a group is joined. Benzoyl(4-(biphenyl-4-yl)) = O=C(c1ccc(-c2ccc(-c3ccccc3)cc2)cc1)*; Linoleoyl = CCCCC/C=C\C/C=C\CCCCCCCC(=O)*; NMeL = CN[C@@H](CC(C)C)C(=O)O; NMeV = CN[C@H](C(=O)O)C(C)C; X1 = Nc1ccc(/C=C/C(=O)*)cc1; Orn = NCCC[C@H](N)C(=O)O; 2Abz = Nc1ccccc1C(=O)O
What was measured:
Staphylococcus aureus [1] = assay: Induction of membrane depolarization in methicillin-resistant Staphylococcus aureus ATCC 33591 at 12.5 ug/ml by DiSC3(5) dye by fluorimetric assay; assay type: functional
Escherichia coli = assay: Antibacterial activity against Escherichia coli ATCC 11775 after 18 hrs by CLSI microdilution broth assay; assay type: functional; conditions: ATCC 11775, 18 h
Pseudomonas aeruginosa = assay: Antibacterial activity against Pseudomonas aeruginosa ATCC 25668 after 18 hrs by CLSI microdilution broth assay; assay type: functional; conditions: ATCC 25668, 18 h
Lipid bilayer [2] = assay: Binding affinity to bacterial membrane mimic POPC/POPG (7:3 w/w) SUVs assessed as blue shift in tryptophan emission maxima at 3 uM after 2 mins by spectrofluorimeter analysis
Staphylococcus aureus [3] = assay: Antibacterial activity against methicillin-resistant Staphylococcus aureus ATCC 33591 after 18 hrs by CLSI microdilution broth assay; assay type: functional; conditions: ATCC 33591, 18 h
Staphylococcus aureus [4] = assay: Antibacterial activity against Staphylococcus aureus ATCC 29213 after 18 hrs by CLSI microdilution broth assay; assay type: functional; conditions: ATCC 29213, 18 h
Acinetobacter baumannii = assay: Antibacterial activity against Acinetobacter baumannii ATCC 19606 after 18 hrs by CLSI microdilution broth assay; assay type: functional; conditions: ATCC 19606, 18 h
[5] = Hemolytic activity against human erythrocytes assessed as hemoglobin release up to 500 ug/ml after 1 hr by ELISA; assay type: ADME, cell-based; conditions: erythrocyte
Lipid bilayer [6] = assay: Binding affinity to mammalian membrane mimic POPC SUVs assessed as blue shift in tryptophan emission maxima at 3 uM after 2 mins by spectrofluorimeter analysis
Bacillus subtilis = assay: Antibacterial activity against Bacillus subtilis ATCC 6633 after 18 hrs by CLSI microdilution broth assay; assay type: functional; conditions: ATCC 6633, 18 h
[7] = Induction of membrane permeabilization in POPC/POPG (7:3 w/w) LUVs assessed as graded leakage of encapsulated calcein dye at 41.01 ug/ml after 5 mins by spectrofluorimeter analysis
[8] = Induction of membrane permeabilization in POPC/POPG (7:3 w/w) LUVs assessed as burst release of calcein dye at 5.68 ug/ml after 5 mins by spectrofluorimeter analysis
Lipid bilayer [9] = assay: Binding affinity to mammalian membrane mimic POPC SUVs assessed as red shift in tryptophan emission maxima at 3 uM after 2 mins by spectrofluorimeter analysis
[10] = Induction of membrane permeabilization in POPC/POPG (7:3 w/w) LUVs assessed as leakage of encapsulated calcein dye at 14.01 ug/ml after 5 mins by spectrofluorimeter analysis
[11] = Stability of the compound assessed as compound digestion at 100 ug/ml after 10 hrs by RP-HPLC analysis in presence of proteinase-K; assay type: ADME; conditions: read-out: Drug degradation
Staphylococcus aureus [12] = assay: Induction of morphological alterations in methicillin-resistant Staphylococcus aureus ATCC 33591 assessed as cell clustering and ruptured membrane at 5XMIC after 30 mins by scanning electron microscopy; assay type: functional, organism-based
Staphylococcus aureus [13] = assay: Induction of membrane depolarization in methicillin-resistant Staphylococcus aureus ATCC 33591 at 7.5 ug/ml by DiSC3(5) dye by fluorimetric assay; assay type: functional
Candida albicans = assay: Antifungal activity against Candida albicans assessed as growth inhibition up to 125 ug/ml by disk diffusion method; assay type: functional, organism-based
Aspergillus fumigatus = assay: Antifungal activity against Aspergillus fumigatus assessed as growth inhibition up to 125 ug/ml by disk diffusion method; assay type: functional, organism-based
[14] = Stability of the compound assessed as compound digestion at 100 ug/ml after 24 hrs by RP-HPLC analysis in presence of proteinase-K; assay type: ADME; conditions: read-out: Drug degradation
Staphylococcus aureus [15] = assay: Induction of membrane depolarization in methicillin-resistant Staphylococcus aureus ATCC 33591 by DiSC3(5) dye by fluorimetric assay; assay type: functional, organism-based
[16] = Binding affinity to gram-negative outer membrane LPS micelles by circular dichroism spectrophotometry
[17] = Hemolytic activity against human erythrocytes assessed as hemoglobin release at 500 ug/ml after 1 hr by ELISA; assay type: ADME, cell-based, Erythrocyte; conditions: read-out: Activity
Staphylococcus aureus [18] = assay: Induction of morphological alterations in methicillin-resistant Staphylococcus aureus ATCC 33591 assessed as rough and damaged cell surface and formation of blebs and massive rupturing at 5XMIC after 30 mins by scanning electron microscopy; assay type: functional, organism-based
Lipid bilayer [19] = assay: Binding affinity to bacterial membrane mimic PC:PG (7:3 w/w) LUVs by circular dichroism spectrophotometry

SMILES | Activity (Staphylococcus aureus [1]) | MIC (Escherichia coli) | MIC (Pseudomonas aeruginosa) | Activity (Lipid bilayer [2]) | MIC (Staphylococcus aureus [3]) | MIC (Staphylococcus aureus [4]) | MIC (Acinetobacter baumannii) | Activity [5] | Tryptophan emission maximum blue shift (Lipid bilayer [6]) | MIC (Bacillus subtilis) | Activity [8] | further results
CN[C@@H](CC(C)C)C(=O)N[C@@H](CCCN)C(=O)N[C@@H](CCCN)C(=O)N[C@@H](Cc1c[nH]c2ccccc12)C(=O)N[C@@H](Cc1c[nH]c2ccccc12)C(N)=O (H-[NMeL][Orn][Orn]WW-NH2) | 18.9% | 64 µg/mL (≈ 85.9 µM) | 128 µg/mL (≈ 172 µM) | 4 nm | 256 µg/mL (≈ 344 µM) | 128 µg/mL (≈ 172 µM) | 128 µg/mL (≈ 172 µM) | Non-toxic | 1 nm | 64 µg/mL (≈ 85.9 µM) | – | –
CN[C@H](C(=O)N[C@@H](CCCN)C(=O)N[C@@H](CCCN)C(=O)N[C@@H](Cc1c[nH]c2ccccc12)C(=O)N[C@@H](Cc1c[nH]c2ccccc12)C(N)=O)C(C)C (H-[NMeV][Orn][Orn]WW-NH2) | 17.2% | 256 µg/mL (≈ 350 µM) | 128 µg/mL (≈ 175 µM) | 3 nm | 256 µg/mL (≈ 350 µM) | 128 µg/mL (≈ 175 µM) | 64 µg/mL (≈ 87.6 µM) | Non-toxic | 0 nm | 128 µg/mL (≈ 175 µM) | – | Activity [7]: 41.8%
NCCC[C@H](NC(=O)/C=C/c1ccc(N)cc1)C(=O)N[C@@H](CCCN)C(=O)N[C@@H](Cc1c[nH]c2ccccc12)C(=O)N[C@@H](Cc1c[nH]c2ccccc12)C(N)=O (X1-[Orn][Orn]WW-NH2) | 16.8% | 32 µg/mL (≈ 41.9 µM) | 16 µg/mL (≈ 21 µM) | 2 nm | 128 µg/mL (≈ 168 µM) | 64 µg/mL (≈ 83.9 µM) | 64 µg/mL (≈ 83.9 µM) | Non-toxic | – | 32 µg/mL (≈ 41.9 µM) | 58.5% | Activity (Lipid bilayer [9]): 2 nm; Activity [10]: 68.3%
CN(C)[C@@H]1C(O)=C(C(N)=O)C(=O)[C@@]2(O)C(O)=C3C(=O)c4c(O)cccc4[C@@](C)(O)[C@H]3C[C@@H]12 [TETRACYCLINE] | – | 0.3 µg/mL (≈ 0.675 µM) | 0.3 µg/mL (≈ 0.675 µM) | – | > 50 µg/mL | 0.3 µg/mL (≈ 0.675 µM) | – | – | – | – | – | –
NCCC[C@H](NC(=O)c1ccccc1N)C(=O)N[C@@H](CCCN)C(=O)N[C@@H](Cc1c[nH]c2ccccc12)C(=O)N[C@@H](Cc1c[nH]c2ccccc12)C(N)=O (H-[2Abz][Orn][Orn]WW-NH2) | 8.9% | 64 µg/mL (≈ 86.9 µM) | 16 µg/mL (≈ 21.7 µM) | 5 nm | 64 µg/mL (≈ 86.9 µM) | 64 µg/mL (≈ 86.9 µM) | 64 µg/mL (≈ 86.9 µM) | Non-toxic | 1 nm | 64 µg/mL (≈ 86.9 µM) | – | Activity [7]: 69.9%
CCCCC/C=C\C/C=C\CCCCCCCC(=O)N[C@@H](CCCN)C(=O)N[C@@H](CCCN)C(=O)N[C@@H](Cc1c[nH]c2ccccc12)C(=O)N[C@@H](Cc1c[nH]c2ccccc12)C(N)=O (Linoleoyl-[Orn][Orn]WW-NH2) | 100% | 2 µg/mL (≈ 2.27 µM) | 2 µg/mL (≈ 2.27 µM) | 10 nm | 4 µg/mL (≈ 4.54 µM) | 2 µg/mL (≈ 2.27 µM) | 2 µg/mL (≈ 2.27 µM) | Non-toxic | 2 nm | 4 µg/mL (≈ 4.54 µM) | 72.3% | metabolised at 10 h, 100 ug/ml [11]: 17%; Activity (Staphylococcus aureus [12]): Active; Activity (Staphylococcus aureus [13]): 84%; growth inhibition (GI) (Candida albicans): inactive; growth inhibition (GI) (Aspergillus fumigatus): inactive; metabolised at 24 h, 100 ug/ml [14]: 36%; Activity (Staphylococcus aureus [15]): Dose-dependent effect; Activity [16]: Active
NCCC[C@H](NC(=O)c1ccc(-c2ccc(-c3ccccc3)cc2)cc1)C(=O)N[C@@H](CCCN)C(=O)N[C@@H](Cc1c[nH]c2ccccc12)C(=O)N[C@@H](Cc1c[nH]c2ccccc12)C(N)=O ({Benzoyl(4-(biphenyl-4-yl))}-[Orn][Orn]WW-NH2) | – | 2 µg/mL (≈ 2.29 µM) | 4 µg/mL (≈ 4.58 µM) | 30 nm | 8 µg/mL (≈ 9.15 µM) | 2 µg/mL (≈ 2.29 µM) | 2 µg/mL (≈ 2.29 µM) | – | 2 nm | 2 µg/mL (≈ 2.29 µM) | 76.4% | hemolysis at 1 h, 500 ug/ml [17]: 50%; metabolised at 10 h, 100 ug/ml [11]: 14%; Activity (Staphylococcus aureus [13]): 81%; growth inhibition (GI) (Candida albicans): inactive; Activity (Staphylococcus aureus [18]): Active; growth inhibition (GI) (Aspergillus fumigatus): inactive; Activity (Lipid bilayer [19]): Active; Activity (Staphylococcus aureus [15]): Dose-dependent effect
NCCC[C@H](NC(=O)[C@@H](N)CCCN)C(=O)N[C@@H](Cc1c[nH]c2ccccc12)C(=O)N[C@@H](Cc1c[nH]c2ccccc12)C(N)=O (H-[Orn][Orn]WW-NH2) | 5.6% | 512 µg/mL (≈ 829 µM) | 256 µg/mL (≈ 414 µM) | 3 nm | – | 128 µg/mL (≈ 207 µM) | 512 µg/mL (≈ 829 µM) | Non-toxic | 2 nm | 512 µg/mL (≈ 829 µM) | – | –

Reference: ChEMBL document CHEMBL3217464, “Antimicrobial activity and mode of action of novel, N-terminal tagged tetra-peptidomimetics” (Medchemcomm, 2013)
